This is an account of results in ChEMBL document CHEMBL1201862, “PubChem BioAssay data set” (2004).

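Values below derive from 48-hour exposures of cells grown in 96-well plates, with endpoints linearly interpolated between the two concentrations bracketing the appropriate inhibition level. Here, GI50 denotes the concentration required for 50% inhibition of growth.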 The source made the active and inactive calls. Rule as the data show it: active = GI50 up to about 1.1 µM and inactive = higher. Bounds are passed on as bounds.

Test systems include A549; ACHN; COLO 205; HCT-116; HCT-15; HOP-62; HOP-92; IGROV-1; K562; M14; MOLT-4; OVCAR-5; TK-10; UACC-257; EKVX; RXF 393; SK-OV-3.
What all share (assay): inhibition of tumour cell growth, NCI panel, 48 h

As for `CN(C)Cc1[nH]c2ccccc2c1C(=O)c1ccccc1`, the GI50 was > 100 µM (inactive) in the test with A549; > 100 µM (inactive) in the test with ACHN; > 100 µM (inactive) with COLO 205; > 100 µM (inactive) with HCT-116; over 100 µM in the test on HCT-15; 33 µM (inactive) in the test with HOP-62. Also, the GI50 was 33 µM (inactive) in the test on HOP-92; > 100 µM (inactive) in the test with IGROV-1; 91.6 µM (inactive) in the test on K562; > 100 µM (inactive) in the test with M14; > 100 µM (inactive) with MOLT-4; > 100 µM (inactive) in the test on OVCAR-5. In addition, the GI50 with TK-10 and in the test with UACC-257 was > 100 µM (inactive) in each case.

As to `COC1CC(Br)(C#N)C1` (stereo not given), the GI50 in the test with A549 was > 100 µM (inactive); in the test with COLO 205 it was > 100 µM (inactive); in the test with EKVX it was > 100 µM (inactive); with HCT-116, > 100 µM (inactive); with HCT-15, over 100 µM; with HOP-62, > 100 µM (inactive). The GI50 in the test on HOP-92 is > 100 µM (inactive); in the test with IGROV-1 it was > 100 µM (inactive); in the test on K562 it was > 100 µM (inactive); with M14 it was > 100 µM (inactive); in the test with MOLT-4 it was 52 µM (inactive); with OVCAR-5, > 100 µM (inactive). Besides, the GI50 with RXF 393, in the test on SK-OV-3 and in the test with TK-10 was > 100 µM (inactive) each time.

For the compound `CC1=NN(C(=O)Cc2ccccc2)C(=O)/C1=C\c1cccc(O)c1`, the GI50 was > 100 µM (inactive) with A549; > 100 µM (inactive) in the test on ACHN; > 100 µM (inactive) in the test on COLO 205; > 100 µM (inactive) with EKVX; > 100 µM (inactive) with HCT-116; over 100 µM in the test with HCT-15. The GI50 with HOP-62, with K562, in the test with M14, in the test with MOLT-4, in the test on OVCAR-5 and with TK-10 was > 100 µM (inactive) each time. For the same compound, in the test with UACC-257, the GI50 is > 100 µM (inactive).

Consider `COc1cc(C(C)O)c[n+](CCc2c[nH]c3ccccc23)c1` (stereo not given), for which the GI50 in the test on A549 is > 100 µM (inactive); in the test with ACHN it was > 100 µM (inactive); in the test with COLO 205, 72.8 µM (inactive); in the test with EKVX, 48.3 µM (inactive); with HCT-116, > 100 µM (inactive); in the test with HCT-15 it was over 100 µM. In addition, the GI50 in the test with HOP-62, with IGROV-1, in the test with K562, with M14, with MOLT-4 and in the test with RXF 393 was > 100 µM (inactive) each time. The GI50 with TK-10 and with UACC-257 was > 100 µM (inactive) in each case.

Consider `CC(=O)/C(=C\c1ccccc1O)C(=O)Nc1ccccc1C`, for which the GI50 with A549 is 20.5 µM (inactive); in the test with ACHN, 17.5 µM (inactive); with EKVX it was 36 µM (inactive); in the test on HCT-116 it was 24.4 µM (inactive); with HCT-15, 14.1 µM; in the test with HOP-62, 20.9 µM (inactive). For the same compound, the GI50 was 15.9 µM (inactive) in the test on HOP-92; 25.9 µM (inactive) in the test with IGROV-1; 4.06 µM (inactive) with K562; 17.5 µM (inactive) with M14; 9.84 µM (inactive) in the test on MOLT-4; 21.2 µM (inactive) in the test with OVCAR-5. For the same compound, the GI50 in the test with RXF 393 is 19.1 µM (inactive); in the test with SK-OV-3 it was 51.9 µM (inactive); in the test with TK-10, > 10 µM (inactive); with UACC-257, 31.9 µM (inactive).

As to `COc1ccccc1-c1cc(O)c2cc3c(cc2n1)OCO3`, the GI50 in the test with A549 is 35.6 µM (inactive); in the test on ACHN, 83.8 µM (inactive); with COLO 205 it was 17.2 µM (inactive); with EKVX, > 100 µM (inactive); with HCT-116, 28.6 µM (inactive); with HCT-15, 12.3 µM. For the same compound, the GI50 in the test with HOP-62 is 14.3 µM (inactive); with IGROV-1 it was 35.2 µM (inactive); with K562, 8.65 µM (inactive); in the test on MOLT-4, 23.2 µM (inactive); in the test with TK-10, > 100 µM (inactive); with UACC-257, 80.9 µM (inactive).

Take `Cc1cc(Cl)ccc1N1C(=O)C(=O)C(c2nc3ccccc3s2)C(=O)C1=O`: the GI50 in the test with A549 was > 100 µM (inactive); with ACHN it was > 100 µM (inactive); with COLO 205, > 100 µM (inactive); with EKVX it was > 100 µM (inactive); with HCT-116, > 100 µM (inactive); in the test on HCT-15, over 100 µM. Also, the GI50 in the test with HOP-62, with HOP-92, with IGROV-1, in the test with K562, with M14 and with MOLT-4 was > 100 µM (inactive) in each case. Further, the GI50 in the test on OVCAR-5, in the test with SK-OV-3, in the test on TK-10 and in the test with UACC-257 was > 100 µM (inactive) each time.

On to `COc1cc(/C=C(\NC(=O)c2ccccc2)c2nc3ccc4c(c3[nH]2)C(=O)c2ccccc2C4=O)cc(OC)c1OC`, for which the GI50 with A549 is 21.4 µM (inactive); in the test with COLO 205 it was > 100 µM (inactive); with EKVX, 44 µM (inactive); in the test on HCT-116 it was 23.1 µM (inactive); in the test on HCT-15, 35.7 µM; with HOP-62, > 100 µM (inactive). The GI50 in the test on HOP-92 was 25.4 µM (inactive); with IGROV-1 it was 10.7 µM (inactive); in the test on K562 it was 28 µM (inactive); in the test on M14, 63.1 µM (inactive); in the test on MOLT-4, 2.52 µM (inactive); with OVCAR-5, > 100 µM (inactive). Moreover, the GI50 is 22.8 µM (inactive) in the test with RXF 393, 18.6 µM (inactive) in the test on SK-OV-3, 29.2 µM (inactive) in the test on TK-10 and > 100 µM (inactive) with UACC-257.

On to `Cc1ccc(N2C(=O)C(Cl)=C(Cl)C2=O)cc1`, for which the GI50 was 37.6 µM (inactive) in the test with A549; 19.6 µM (inactive) with ACHN; 16.1 µM (inactive) in the test on COLO 205; 21.5 µM (inactive) with EKVX; 17 µM (inactive) in the test on HCT-116; 19.2 µM in the test on HCT-15. Also, the GI50 was 30.1 µM (inactive) in the test on HOP-62; 18.2 µM (inactive) with HOP-92; 20.8 µM (inactive) in the test on IGROV-1; 18.7 µM (inactive) in the test on K562; 19.2 µM (inactive) in the test on M14; 16.4 µM (inactive) with MOLT-4. Besides, the GI50 was 18 µM (inactive) with OVCAR-5, 12.5 µM (inactive) in the test with RXF 393, 44 µM (inactive) in the test on SK-OV-3 and 19.1 µM (inactive) in the test with UACC-257.

In the case of `O=S1(=O)CCCS(=O)(=O)C(c2ccccc2)=C1c1ccccc1`, the GI50 in the test with A549 is 42.3 µM (inactive); in the test with ACHN, 54 µM (inactive); in the test on EKVX, > 100 µM (inactive); in the test on HCT-116 it was 30.5 µM (inactive); in the test on HCT-15, 27.7 µM; in the test with HOP-62, 30.3 µM (inactive). The GI50 in the test on HOP-92 is 28.2 µM (inactive); with IGROV-1, 70.5 µM (inactive); in the test on K562, 31.9 µM (inactive); in the test with M14 it was 26.9 µM (inactive); in the test on MOLT-4, 36.2 µM (inactive); with OVCAR-5, > 100 µM (inactive). The GI50 in the test with SK-OV-3 is 44.2 µM (inactive); with TK-10, > 100 µM (inactive); with UACC-257, 69.7 µM (inactive).

Consider `N#Cc1ccc(C2SCc3nc4ccccc4n32)cc1` (stereo not given), for which the GI50 in the test with A549 is 81.8 µM (inactive); in the test on ACHN it was 63.8 µM (inactive); in the test on COLO 205 it was > 100 µM (inactive); in the test on EKVX, 69.3 µM (inactive); in the test with HCT-116 it was 44.8 µM (inactive); in the test on HCT-15, over 100 µM. Also, the GI50 was 98.6 µM (inactive) with HOP-62; 79.4 µM (inactive) in the test on IGROV-1; 41.6 µM (inactive) in the test with K562; 54.2 µM (inactive) in the test on M14; 63.1 µM (inactive) with MOLT-4; 10.5 µM (inactive) with RXF 393. For the same compound, the GI50 in the test on SK-OV-3 is > 100 µM (inactive); in the test on TK-10, 81.7 µM (inactive); in the test with UACC-257 it was > 100 µM (inactive).

Regarding `C/C(=N\NC(=O)CC(=O)N(C(=O)c1ccc(Cl)cc1)c1ccc(C)cc1)c1ccccc1O`, the GI50 in the test on A549 was 35.6 µM (inactive); with ACHN, 45.6 µM (inactive); in the test with COLO 205, 16.9 µM (inactive); in the test with EKVX it was 6.79 µM (inactive); in the test with HCT-116, 62.2 µM (inactive); with HCT-15, 4.88 µM. For the same compound, the GI50 with HOP-62 is 37 µM (inactive); in the test with IGROV-1, > 100 µM (inactive); with K562, > 100 µM (inactive); in the test on M14, 81.7 µM (inactive); with MOLT-4, 5.79 µM (inactive); in the test on OVCAR-5, > 100 µM (inactive). In addition, the GI50 in the test on RXF 393 was 18.3 µM (inactive); with SK-OV-3 it was > 100 µM (inactive); in the test on TK-10 it was 17.6 µM (inactive); in the test on UACC-257, > 100 µM (inactive).

Consider `O=C(NO)c1ccc([N+](=O)[O-])cc1`, for which the GI50 in the test with A549 is 64.4 µM (inactive); with COLO 205, 31.1 µM (inactive); in the test on EKVX, 27.1 µM (inactive); in the test on HCT-15 it was 64.3 µM; in the test with HOP-62, 29.3 µM (inactive); in the test on IGROV-1, 49.9 µM (inactive). Besides, the GI50 was 31 µM (inactive) in the test with K562; 40.9 µM (inactive) in the test on M14; 25.8 µM (inactive) in the test with MOLT-4; 18.3 µM (inactive) with RXF 393; > 100 µM (inactive) in the test on SK-OV-3; 37.3 µM (inactive) with TK-10. Moreover, the GI50 in the test with UACC-257 is 28.6 µM (inactive).

As to `COC(=O)c1c2c(cc3c1CC1(Cc4cc5c(c(C(C)=O)c4C1)CCC5)C3)CCC2` (stereo not given), the GI50 is 27.5 µM (inactive) in the test with A549; 40 µM (inactive) with ACHN; > 100 µM (inactive) in the test on COLO 205; 28.6 µM (inactive) with HCT-116; 42 µM (inactive) in the test on HOP-62; 22.3 µM (inactive) with HOP-92. The GI50 in the test with IGROV-1 was 72.8 µM (inactive); with K562, 35.2 µM (inactive); in the test with M14 it was > 100 µM (inactive); with MOLT-4, 38.2 µM (inactive); in the test with OVCAR-5, > 100 µM (inactive); with RXF 393, 20.2 µM (inactive). Also, the GI50 in the test with TK-10 was > 100 µM (inactive); in the test with UACC-257 it was 34.9 µM (inactive).
